Measurements reported in publication PMC7395068, “The evolution of strategies to minimise the risk of human drug-induced liver injury (DILI) in drug discovery and development” (Archives of Toxicology, 2020).
Where two headings read alike, the source gives them in different places. Blank lines part the entries; values can stand above or below the compound they belong to.

How the values were obtained:
[1] = cited from earlier work
HepG2 cells [2] = settings: cited from earlier work; for Structural based (HCI): In vitro Assay, ref O'Brien 2006
HepG2 cells [3] = settings: cited from earlier work; for Cluser analysis / Structural based (HCI): In vitro Assay, ref Persson 2013
human hepatocytes = settings: cited from earlier work; for Structural based (HCI): In vitro Assay, ref Xu 2008
[4] = test system: THLE or HepG2 cells, isolated mitochondria, BSEP; settings: cited from earlier work; for Partition Hybrid HRM Score / Ro2 Hybrid HRM Score: In vitro Assay, ref Aleo 2019
PHH spheroids = settings: In vitro Assay; ref Vorrink 2018; cited from earlier work
[5] = cited from earlier work; remark: listed apart in the source
[6] = test system: THLE-Null and THLE-3A4 cells; settings: In vitro Assay; ref Gustafsson 2014; cited from earlier work
[7] = test system: HepG2 cells, primary human hepatocytes; settings: In vitro Assay; ref Garside 2014; cited from earlier work
Upcyte human hepatocytes = settings: In vitro Assay; ref Tolosa 2019; cited from earlier work
rBsep [8] = settings: In vitro Assay; ref Dawson 2012; cited from earlier work
HepG2 cells [9] = settings: cited from earlier work
rBsep [10] = test system: rBsep; design: method as in Dawson 2012; settings: In vitro Assay; ref Dawson 2012; cited from earlier work
[11] = Plasma free fraction (fu) and unbound Cmax (Cmax,u); assay type: in vitro ADME, human; settings: unbound plasma Cmax
PHH = settings: cited from earlier work
hLiMTs [12] = settings: cited from earlier work
[13] = read-out: Human plasma Cmax; total plasma Cmax.tot, median of 9 literature references; cited from earlier work
[14] = plasma free fraction; cited from earlier work
[15] = test system: isolated mouse liver mitochondria; settings: In vitro Assay; ref Porceddu 2012; cited from earlier work
hLiMTs [16] = experiment: Combined HCI (HCS) and cellular ATP 3D assay in hLiMTs
HepaRG spheroids = experiment: Combined HCI (HCS) and cellular ATP 3D assay in HepaRG spheroids
[17] = Modeled in vitro assays (cytotoxicity, mitochondrial dysfunction, BSEP), ref Aleo et al. 2019
[18] = In vitro Assay, ref Proctor 2017
[19] = Microtissue model structural based (HCI), combined HCS and ATP, MEC < 25 × Cmax.tot cut-off

SMILES: CC(C)NCC(O)c1ccc(O)c(O)c1 (stereo not shown) [isoproterenol]
DILI +VE (5-8), DILI -VE (-4) ([1]; ref Chen 2016): -VE
DILI severity category ([1]; ref Chen 2016): vNo-DILI-Concern
Structural based (HCI) (HepG2 cells [2]): -VE
Cluser analysis (HepG2 cells [3]): -VE
Structural based (HCI) (HepG2 cells [3]): -VE
Structural based (HCI) (human hepatocytes): -VE
Partition Hybrid HRM Score [4]: -VE
Ro2 Hybrid HRM Score [4]: -VE
hLiMTs ATP <20 x Cmax (PHH spheroids): -VE
In vivo DILI ([5]; ref Aleo 2019): -VE
In vivo DILI ([5]; ref Dawson 2012): -VE
In vivo DILI ([5]; ref Garside 2014): -VE
In vivo DILI ([5]; ref Gustafsson 2014): -VE
In vivo DILI ([5]; ref O'Brien 2006): -VE
In vivo DILI ([5]; ref Persson 2013): -VE
In vivo DILI ([5]; ref Tolosa 2019): -VE
In vivo DILI ([5]; ref Vorrink 2018): -VE
In vivo DILI ([5]; ref Xu 2008): -VE
THLE-Null [6]: -VE
THLE-Null/3A4 [6]: -VE
Cluster 1-6 +VE Assay [7]: +VE
Upcytes multi donor assay 14day data (Upcyte human hepatocytes): -VE
Inhibition of rBsep cutoff<1& cmax u>.2 (rBsep [8]): -VE
Inhibition of rBsep cutoff<3 (rBsep [8]): -VE

SMILES: CN1CCC(=C2c3ccccc3CC(=O)c3sccc32)CC1 [ketotifen, reference compound]
Structural based (HCI) (HepG2 cells [2]): -VE
Structural based (HCI) (HepG2 cells [9]; In vitro Assay, ref Tolosa 2012): +VE
DILI in vitro assay prediction, Tolosa (2012) (HepG2 cells [9]; Structural based (HCI), HepG2, ref Tolosa et al. 2012): false-positive
Structural based (HCI) (human hepatocytes): -VE
In vivo DILI ([5]; ref Dawson 2012): -VE
In vivo DILI ([5]; ref Garside 2014): +VE
In vivo DILI ([5]; ref Gustafsson 2014): +VE
In vivo DILI ([5]; ref O'Brien 2006): -VE
In vivo DILI ([5]; ref Tolosa 2012): -VE
In vivo DILI ([5]; ref Tolosa 2019): +VE
In vivo DILI ([5]; ref Xu 2008): -VE
THLE-Null [6]: -VE
THLE-Null/3A4 [6]: -VE
Cluster 1-6 +VE Assay [7]: +VE
Upcytes multi donor assay 14day data (Upcyte human hepatocytes): +VE
Inhibition of rBsep cutoff<1& cmax u>.2 (rBsep [8]): -VE
Inhibition of rBsep cutoff<3 (rBsep [8]): -VE

SMILES: COc1ccc(C(=O)NCc2cccnc2)cc1C(=O)NCc1cccnc1 [picotamide]
Inhibition of rBsep cutoff<1& cmax u>.2 (rBsep [10]): -VE
Inhibition of rBsep cutoff<3 (rBsep [10]): -VE
Structural based (HCI) (HepG2 cells [2]): +VE (lowest HCI endpoint IC50 (or in the absence of dose–response < 100 µM) < 30 × total human plasma exposure levels (Cmax.tot))
In vivo DILI ([5]; ref Dawson 2012): -VE
In vivo DILI ([5]; ref Gustafsson 2014): -VE
In vivo DILI ([5]; ref O'Brien 2006): -VE

Human plasma Cmax,u [11]: 41.912 µM
hLiMTs <25x Avg Cmax ATP (hLiMTs [16]; hLiMTs, ATP endpoint, cut-off <25x Avg Cmax): -ve
hLiMTs <100x Avg Cmaxu ATP (hLiMTs [16]; hLiMTs, ATP endpoint, cut-off <100x Avg Cmaxu): +ve (<100x Avg Cmaxu)
hLiMTs <25x Avg Cmax HCS (hLiMTs [16]; hLiMTs, HCS endpoints, cut-off <25x Avg Cmax): -ve
hLiMTs <100x Avg Cmaxu HCS (hLiMTs [16]; hLiMTs, HCS endpoints, cut-off <100x Avg Cmaxu): -ve
hLiMTs <25x Avg Cmax All (hLiMTs [16]; hLiMTs, all endpoints (ATP and HCS), cut-off <25x Avg Cmax): -ve
hLiMTs Cmax max All (hLiMTs [16]; hLiMTs, all endpoints, Cmax max used): -ve
hLiMTs Cmax min All (hLiMTs [16]; hLiMTs, all endpoints, Cmax min used): -ve
hLiMTs <10 uM All (hLiMTs [16]; hLiMTs, all endpoints, cut-off <10 uM): -ve
hLiMTs <100x Avg Cmaxu All (hLiMTs [16]; hLiMTs, all endpoints, cut-off <100x Avg Cmaxu): +ve (<100x Avg Cmaxu)
HepaRG <25x Avg Cmax ATP (HepaRG spheroids; HepaRG, ATP endpoint, cut-off <25x Avg Cmax): -ve
HepaRG <100x Avg Cmaxu ATP (HepaRG spheroids; HepaRG, ATP endpoint, cut-off <100x Avg Cmaxu): +ve (<100x Avg Cmaxu)
HepaRG <25x Avg Cmax HCS (HepaRG spheroids; HepaRG, HCS endpoints, cut-off <25x Avg Cmax): -ve
HepaRG <100x Avg Cmaxu HCS (HepaRG spheroids; HepaRG, HCS endpoints, cut-off <100x Avg Cmaxu): +ve (<100x Avg Cmaxu)
HepaRG <25x Avg Cmax All (HepaRG spheroids; HepaRG, all endpoints (ATP and HCS), cut-off <25x Avg Cmax): -ve
HepaRG Cmax max All (HepaRG spheroids; HepaRG, all endpoints, Cmax max used): -ve
HepaRG Cmax min All (HepaRG spheroids; HepaRG, all endpoints, Cmax min used): -ve
HepaRG <10 uM All (HepaRG spheroids; HepaRG, all endpoints, cut-off <10 uM): -ve
HepaRG <100x Avg Cmaxu All (HepaRG spheroids; HepaRG, all endpoints, cut-off <100x Avg Cmaxu): +ve (<100x Avg Cmaxu)
SMILES: [H]/N=C(/N)N[C@H]1[C@H](O)[C@@H](O)[C@H](O[C@@H]2O[C@@H](C)[C@](O)(C=O)[C@H]2O[C@@H]2O[C@@H](CO)[C@H](O)[C@@H](O)[C@@H]2NC)[C@@H](N/C(N)=N\[H])[C@@H]1O [streptomycin, reference compound]
DILI severity category (Chen et al. [2016]) ([1]; LTKB DILIrank category, ref Chen et al. 2016): No
DILI severity category (Chen 2016) ([1]; human DILI classification, LTKB DILIrank, ref Chen et al. 2016): No
DILI severity category ([1]; human DILI severity, ref Chen et al.): No
DILI +VE (5-8), DILI -VE (-4) ([1]; ref Chen 2016): -VE
DILI severity category ([1]; ref Chen 2016): vNo-DILI-Concern
Structural based (HCI) (HepG2 cells [2]): +VE
DILI in vitro assay prediction, O'Brien (2006) (HepG2 cells [2]; Structural based (HCI), HepG2, ref O'Brien et al. 2006): +VE (lowest HCI endpoint IC50 (or in the absence of dose–response < 100 µM) < 30 × total human plasma exposure levels (Cmax.tot))
Cluser analysis (HepG2 cells [3]): -VE
Structural based (HCI) (HepG2 cells [3]): -VE
DILI in vitro assay prediction, Persson (2013) (HepG2 cells [3]; Structural based (HCI), HepG2, ref Persson et al. 2013): -VE
Structural based (HCI) (human hepatocytes): -VE
DILI in vitro assay prediction, Xu (2008) (human hepatocytes; Structural based (HCI), human hepatocytes, ref Xu et al. 2008): -VE
Partition Hybrid HRM Score [4]: -VE
Ro2 Hybrid HRM Score [4]: -VE
Partition Hybrid HRM Score ≥4, Aleo (2019) [4, 17]: -VE
Partition Hybrid HRM Score ≥8, Aleo (2019) [4, 17]: -VE
Rule of Two hybrid HRM Score ≥3, Aleo (2019) [4, 17]: -VE
Rule of Two hybrid HRM Score ≥8, Aleo (2019) [4, 17]: -VE
PHH/100xCmax, Proctor (2017) (PHH; 2D PHH, ATP, IC50 < 100 × Cmax.tot, ref Proctor et al. 2017): -VE
PHH/100uM, Proctor (2017) (PHH; 2D PHH, ATP, IC50 threshold 100 µM, ref Proctor et al. 2017): -VE
PHH ATP <100uM (PHH; [18]): -VE
hLiMTs ATP <100uM (hLiMTs [12]; [18]): -VE
hLiMTs/100xCmax, Proctor (2017) (hLiMTs [12]; hLiMTs, ATP, IC50 < 100 × Cmax.tot, ref Proctor et al. 2017): -VE
hLiMTs/100uM, Proctor (2017) (hLiMTs [12]; hLiMTs, ATP, IC50 threshold 100 µM, ref Proctor et al. 2017): -VE
Cmax [13]: 64.5 µM
fu [14]: 0.650
Assigned DILI category ([5]; Chen et al. 2016 or literature alignment, ref Chen et al. 2016): 1
In vivo DILI ([5]; ref Aleo 2019): -VE
In vivo DILI ([5]; ref Dawson 2012): -VE
In vivo DILI ([5]; ref Garside 2014): -VE
In vivo DILI ([5]; ref Gustafsson 2014): -VE
In vivo DILI ([5]; ref O'Brien 2006): -VE
In vivo DILI ([5]; ref Persson 2013): -VE
In vivo DILI ([5]; ref Porceddu 2012): +VE
In vivo DILI ([5]; ref Proctor 2017): -VE
In vivo DILI ([5]; ref Tolosa 2019): -VE
In vivo DILI ([5]; ref Xu 2008): -VE
THLE-Null [6]: -VE
THLE-Null/3A4 [6]: -VE
Cluster 1-6 +VE Assay [7]: -VE
in vitro data EC2<=1x Cmax [15]: +VE
in vitro data EC20<=2uM [15]: -VE
Upcytes multi donor assay 14day data (Upcyte human hepatocytes): -VE
Inhibition of rBsep cutoff<1& cmax u>.2 (rBsep [8]): -VE
Inhibition of rBsep cutoff<3 (rBsep [8]): -VE
AC50 (hLiMTs [16]; Homo sapiens, read-out: ATP endpoint AC50): 1.96 mM
minimal effective concentration (hLiMTs [16]; Homo sapiens, read-out: ATP endpoint MEC): 1700 µM
DILI prediction hLiMTs (HCS-MEC) (hLiMTs [16]; [19]): -VE
AC50 (HepaRG spheroids; Homo sapiens, HepaRG, read-out: ATP endpoint AC50): 3.65 mM
minimal effective concentration (HepaRG spheroids; Homo sapiens, HepaRG, read-out: ATP endpoint MEC): 2830 µM
minimal effective concentration (HepaRG spheroids; Homo sapiens, HepaRG, read-out: HCS endpoint MEC): 3140 µM
DILI prediction HepaRG spheroids (HCS-MEC) (HepaRG spheroids; [19]): -VE
